Measured values published in US5104889A, “Thiazole derivatives” (Otsuka Pharmaceutical Factory, Inc., priority 1986, dated 1992).
Converted amounts (≈) assume the structure as drawn.

System: fetal bovine heart-derived endothelial cells (FBHE cells)
Assay: Angiogenesis inhibiting activity test: inhibition of proliferation of cultured FBHE cells (neutral red uptake, 3 days)
Format: cell-based
Details: for IC50: Bos taurus, Endothelial cell, 3 days incubation, 10% FBS-added DME, 0.05% DMSO; for IC50 / FGF-/FGF+ ratio: FBHE cells; for FGF-/FGF+ ratio: ratio of IC50 without FGF to IC50 with FGF, 4320 min
Procedure: For use in this test, FBHE cells purchased from the ATCC were maintained by subculturing in a medium prepared by adding 20 ng/ml of fibroblast growth factor (FGF; Collaborative Research) to Dulbecco's modified Eagle's medium (DME; Nissui Seiyaku) supplemented with 10% fetal bovine serum (FBS). From two days before the start of the experiment, the addition of FGF was omitted and FBHE cells were cultured in DME with 10% FBS alone added. At the start of the experiment, the culture medium was removed, phosphate-buffered saline solution (PBS^(-); Nissui Seiyaku) was added instead, and cells were rinsed lightly. Then the PBS^(-) was removed, an adequate amount of 0.1% EDTA-0.2% trypsin solution was added and, after light rinsing, removed, and cells were stripped off. After addition of 10% FBS-added DME and sufficient pipetting, the cells stripped off were transferred to a centrifugal tube and centrifuged for washing (1,200 rpm, 5 minutes). The viable cell count was determined using a hemocytometer with the number of dead cells stained with trypan blue being substracted. The cell concentration was adjusted to 3×10^3 cells/well using 10% FBS-added DME. A cell suspension was thus prepared. […] For attaining test substance concentrations, serial double dilution was performed starting with 10 μg/ml. The following procedure was followed. Thus, to each well of 96-well Multiplates (Corning), there was added 50 μl of DME containing 10% FBS. Then, 50 μl of each test substance solution having the highest final concentration of 10 μg/ml was added to the well for the highest concentration and then serial dilution was carried out on each plate. Furthermore, 50 μl of FGF (5 ng/ml at maximum) was added to each well, followed by final addition of 100 μl of the cell suspension. The plates prepared by the above procedure were incubated in a carbon dioxide gas incubator for 3 days. After 3 days of incubation, neutral red was added to each well and the cells were allowed to take up the dye by 2 hours incubation in a carbon dioxide gas incubator. Thereafter, the cells were rinsed twice with PBS^(-) or physiological saline. Finally, 100 μl of acid alcohol (a 1:1 mixed solution prepared from 0.1 M aqueous monosodium phosphate solution and ethanol) was added to each well for dissolution thereinto of the dye taken up, and the absorbance of the resultant dye solution was determined using an absorptiometer. The absorbance values measured by the above procedure (3) for each dilution of each test substance with addition of FGF and without addition of FGF (normal condition) were plotted on a graph paper, and the test substance concentration required for 50% inhibition of the proliferation of cultured FBHE cells was determined from the graph obtained and expressed as an IC50 value.

[1] = 72 h, with addition of FGF (5 ng/ml at maximum)
[2] = 72 h, without addition of FGF (normal condition)

| Compound | IC50 [1] | IC50 [2] | FGF-/FGF+ ratio | IC50 FGF- (72 h) |
| --- | --- | --- | --- | --- |
| CC(C)(C)c1cc(Nc2nccs2)cc(C(C)(C)C)c1O [Example 2, 2,6-Di-tert-butyl-4-[(2-thiazolyl)amino]phenol] | 0.89 µg/mL (≈ 2.92 µM) | 10.7 µg/mL (≈ 35.1 µM) | 12.0 | – |
| CCCCCc1sc(Nc2cc(C(C)(C)C)c(O)c(C(C)(C)C)c2)nc1C [Example 6] | 2.18 µg/mL (≈ 5.61 µM) | 9.21 µg/mL (≈ 23.7 µM) | 4.2 | – |
| Cc1nc(Nc2cc(C(C)(C)C)c(O)c(C(C)(C)C)c2)sc1C [Example 11, 2,6-Di-tert-butyl-4-[(4,5-dimethyl-2-thiazolyl)amino]phenol] | 6.14 µg/mL (≈ 18.5 µM) | – | 4.2 | 25.94 µg/mL (≈ 78 µM) |
| CCSc1sc(Nc2cc(C(C)(C)C)c(O)c(C(C)(C)C)c2)nc1C [Example 12, 2,6-Di-tert-butyl-4-[(4-methyl-5-ethylthio-2-thiazolyl)amino]phenol] | 1.55 µg/mL (≈ 4.09 µM) | 6.53 µg/mL (≈ 17.2 µM) | 4.2 | – |
| CCOC(=O)c1sc(Nc2cc(C(C)(C)C)c(O)c(C(C)(C)C)c2)nc1C [Example 18, 2,6-Di-tert-butyl-4-[(4-methyl-5-ethoxycarbonyl-2-thiazolyl)amino]phenol] | 1.92 µg/mL (≈ 4.92 µM) | 11.9 µg/mL (≈ 30.5 µM) | 6.2 | – |
| CC(C)(C)c1cc(Nc2nc(CO)cs2)cc(C(C)(C)C)c1O.Cl.Cl [Example 25, 2,6-di-tert-butyl-4-[(4-hydroxymethyl-2-thiazolyl)amino]phenol dihydrochlo ride] | 0.92 µg/mL | 5.76 µg/mL | 6.3 | – |
| CC(C)(C)c1cc(Nc2nc(C(=O)NN)cs2)cc(C(C)(C)C)c1O [Example 35, 2,6-di-di-tert-butyl-4-[(4-carbazoyl-2-thiazolyl)amino]phenol] | 0.61 µg/mL (≈ 1.68 µM) | 3.66 µg/mL (≈ 10.1 µM) | 6.0 | – |
| CCOC(=O)c1csc(Oc2cc(C(C)(C)C)c(O)c(C(C)(C)C)c2)n1 [Example 40, 2,6-di-tert-butyl-4-[(4-ethoxycarbonyl-2-thiazolyl)oxy]phenol] | 0.74 µg/mL (≈ 1.96 µM) | 5.72 µg/mL (≈ 15.2 µM) | 7.7 | – |
| CC(C)(C)c1cc(Sc2nccs2)cc(C(C)(C)C)c1O [Example 42, 2,6-Di-tert-butyl-4-(2-thiazolylthio)phenol] | 1.85 µg/mL (≈ 5.75 µM) | 8.71 µg/mL (≈ 27.1 µM) | 4.7 | – |
